Activity calls are given as the source filed them. No cut-off for these calls is given here.
Experiments:
[1] = Cytotoxicity against human HUVEC cells incubated for 72 hrs by CCK-8 assay; assay type: toxicity, cell-based
[2] = Cytotoxicity against human KPL-4 cells incubated for 72 hrs by CCK-8 assay; assay type: functional, cell-based; conditions: KPL4, 72 h
[3] = Cytotoxicity against human NCM460 cells incubated for 72 hrs by CCK-8 assay; assay type: toxicity, cell-based
Jurkat = assay: Cytotoxicity against human Jurkat cells incubated for 72 hrs by CCK-8 assay; assay type: functional, cell-based
Calf thymus DNA [4] = assay: Binding affinity to calf thymus DNA assessed as change in gibbs free energy in presence of ethidium bromide by competitive binding based fluorescence spectroscopic analysis; assay type: nucleic-acid assay; conditions: Bos taurus
Caco-2 = assay: Cytotoxicity against human Caco-2 cells incubated for 72 hrs by CCK-8 assay; assay type: functional, cell-based; conditions: Caco-2, 72 h
A549 = assay: Cytotoxicity against human A549 cells incubated for 72 hrs by CCK-8 assay; assay type: functional, cell-based; conditions: A549, 72 h
Supercoiled DNA [5] = assay: Induction of supercoiled pBR322 DNA (unknown origin) cleavage assessed as relaxation of supercoiled plasmid incubated for 1 hr in presence of DTT by SYBR I Green staining based agarose gel electrophoresis analysis; assay type: nucleic-acid assay
DNA [6] = assay: Induction of duplex DNA (unknown origin) cleavage assessed as DNA cleaved fragments at AT-rich region at 100 uM incubated for 6 hr in presence of DTT by agarose gel electrophoresis analysis; assay type: nucleic-acid assay
Supercoiled DNA [7] = assay: Induction of supercoiled pBR322 DNA (unknown origin) cleavage at 0.5 uM incubated for 1 hr in presence of pyridine under pH 7.4 condition by agarose gel electrophoresis analysis; assay type: nucleic-acid assay
Supercoiled DNA [8] = assay: Induction of supercoiled pBR322 DNA (unknown origin) cleavage at 0.5 uM incubated for 1 hr in presence of methanol under pH 7.4 condition by agarose gel electrophoresis analysis; assay type: nucleic-acid assay
Supercoiled DNA [9] = assay: Induction of supercoiled pBR322 DNA (unknown origin) cleavage at 0.5 uM incubated for 1 hr in presence of catalase under pH 7.4 condition by agarose gel electrophoresis analysis; assay type: nucleic-acid assay
Supercoiled DNA [10] = assay: Induction of supercoiled pBR322 DNA (unknown origin) cleavage at 0.5 uM incubated for 1 hr in presence of mannitol under pH 7.4 condition by agarose gel electrophoresis analysis; assay type: nucleic-acid assay
Supercoiled DNA [11] = assay: Induction of supercoiled pBR322 DNA (unknown origin) cleavage at 0.5 uM incubated for 1 hr under pH 7.5 condition by agarose gel electrophoresis analysis; assay type: nucleic-acid assay
Supercoiled DNA [12] = assay: Induction of supercoiled pBR322 DNA (unknown origin) cleavage at 0.5 uM incubated for 1 hr in presence of ethanol under pH 7.4 condition by agarose gel electrophoresis analysis; assay type: nucleic-acid assay
Supercoiled DNA [13] = assay: Induction of supercoiled pBR322 DNA (unknown origin) cleavage at 5 uM incubated for 1 hr in presence of catalase under pH 7.4 condition by agarose gel electrophoresis analysis; assay type: nucleic-acid assay
Supercoiled DNA [14] = assay: Induction of supercoiled pBR322 DNA (unknown origin) cleavage at 5 uM incubated for 1 hr under pH 5.5 to 9.5 condition by agarose gel electrophoresis analysis; assay type: nucleic-acid assay
Supercoiled DNA [15] = assay: Induction of supercoiled pBR322 DNA (unknown origin) cleavage at 5 uM incubated for 1 hr in presence of methanol under pH 7.4 condition by agarose gel electrophoresis analysis; assay type: nucleic-acid assay
DNA [16] = assay: Induction of duplex DNA (unknown origin) cleavage assessed as DNA cleaved fragments at AT-rich region at 1 mM incubated for 6 hr in presence of DTT by agarose gel electrophoresis analysis; assay type: nucleic-acid assay
Supercoiled DNA [17] = assay: Induction of supercoiled pBR322 DNA (unknown origin) cleavage at 5 uM incubated for 1 hr in presence of mannitol under pH 7.4 condition by agarose gel electrophoresis analysis; assay type: nucleic-acid assay
Supercoiled DNA [18] = assay: Induction of supercoiled pBR322 DNA (unknown origin) cleavage at 5 uM incubated for 1 hr in presence of pyridine under pH 7.4 condition by agarose gel electrophoresis analysis; assay type: nucleic-acid assay
Supercoiled DNA [19] = assay: Induction of supercoiled pBR322 DNA (unknown origin) cleavage at 5 uM incubated for 1 hr in presence of ethanol under pH 7.4 condition by agarose gel electrophoresis analysis; assay type: nucleic-acid assay
Supercoiled DNA [20] = assay: Induction of supercoiled pBR322 DNA (unknown origin) cleavage at 100 nM incubated for 1 hr in presence of GSH by agarose gel electrophoresis analysis; assay type: nucleic-acid assay
Supercoiled DNA [21] = assay: Induction of supercoiled pBR322 DNA (unknown origin) cleavage at 100 nM incubated for 1 hr in presence of DTT by agarose gel electrophoresis analysis; assay type: nucleic-acid assay
Supercoiled DNA [22] = assay: Induction of supercoiled pBR322 DNA (unknown origin) cleavage at 100 nM incubated for 1 hr in presence of NADPH by agarose gel electrophoresis analysis; assay type: nucleic-acid assay
Supercoiled DNA [23] = assay: Induction of supercoiled pBR322 DNA (unknown origin) cleavage at 0.5 uM incubated for 1 hr under pH 5.5 to 9.5 condition by agarose gel electrophoresis analysis; assay type: nucleic-acid assay
Supercoiled DNA [24] = assay: Induction of supercoiled pBR322 DNA (unknown origin) cleavage at 100 nM incubated for 1 hr in presence of bleomycin by agarose gel electrophoresis analysis; assay type: nucleic-acid assay
Supercoiled DNA [25] = assay: Induction of supercoiled pBR322 DNA (unknown origin) cleavage at 100 nM incubated for 1 hr in presence of adriamycin by agarose gel electrophoresis analysis; assay type: nucleic-acid assay
[26] = Toxicity in BALB/c mouse xenografted with human KPL-4 cells assessed as body weight loss at 0.05 mg/kg,iv administrated once per week for 2 weeks; assay type: organism-based; conditions: in vivo, 336 h
Supercoiled DNA [27] = assay: Induction of supercoiled pBR322 DNA (unknown origin) cleavage at 100 nM incubated for 1 hr in presence of 10 uM of actinomycin D by agarose gel electrophoresis analysis; assay type: nucleic-acid assay
Supercoiled DNA [28] = assay: Induction of supercoiled pBR322 DNA (unknown origin) cleavage at 100 nM incubated for 1 hr in presence of actinomycin D by agarose gel electrophoresis analysis; assay type: nucleic-acid assay
Supercoiled DNA [29] = assay: Induction of supercoiled pBR322 DNA (unknown origin) cleavage at 100 nM incubated for 1 hr in presence of 10 uM of adriamycin by agarose gel electrophoresis analysis; assay type: nucleic-acid assay
Calf thymus DNA [30] = assay: Binding affinity to calf thymus DNA assessed as DNA insertion by measuring change in gibbs free energy by fluorescence spectroscopic analysis; assay type: nucleic-acid assay; conditions: Bos taurus
Supercoiled DNA [31] = assay: Induction of supercoiled pBR322 DNA (unknown origin) cleavage at 100 nM incubated for 1 hr in presence of bleomycin and ferrous ion by agarose gel electrophoresis analysis; assay type: nucleic-acid assay
Calf thymus DNA [32] = assay: Binding affinity to calf thymus DNA assessed as DNA insertion by measuring change in gibbs free energy in presence of triggered form of compound by fluorescence spectroscopic analysis; assay type: nucleic-acid assay; conditions: Bos taurus
DNA [33] = assay: Induction of duplex DNA (unknown origin) cleavage assessed as DNA cleaved fragments at GC-rich region at 17.5 uM incubated for 1 hr in presence of FeSO4.7H2O by agarose gel electrophoresis analysis; assay type: nucleic-acid assay

Compound	IC50 at 72 h [1]	IC50 [2]	IC50 at 72 h [3]	IC50 (Jurkat)	deltaG (Calf thymus DNA [4])	IC50 (Caco-2)	IC50 (A549)	EC50 (Supercoiled DNA [5])	Activity (DNA [6])	other results
COC(=O)[C@@H](O)[C@@](C)(O)[C@@]12O[C@]13c1cc(O)c4c(c1N[C@H]2C#C/C=C\C#C[C@H]3O)C(=O)c1cc(OC)ccc1C4=O	15.5 nM	0.5 nM	2.8 nM	0.1 nM	-7.99 kcal/mol	6.8 nM	2.8 nM	583 nM	Active	–
COc1cc(Br)c2c(c1O)C(=O)c1c3c(cc(O)c1C2=O)[C@@]12O[C@@]1([C@@H](C)O)[C@H](C#C/C=C\C#C[C@H]2O)N3	22.7 nM	0.31 nM	3.3 nM	2.6 nM	-8.13 kcal/mol	154 nM	11 nM	79 nM	Active	–
COC(=O)[C@@H](O)[C@@](C)(O)[C@@]12O[C@]13c1cc(O)c4c(c1N[C@H]2C#C/C=C\C#C[C@H]3O)C(=O)c1c(O)c(OC)cc(-n2[nH]c(=O)n(-c3ccccc3)c2=O)c1C4=O	946 nM	23.7 nM	227 nM	44.7 nM	–	613 nM	499 nM	33.2 nM	inactive	–
COc1cccc2c1C(=O)c1c(O)c3c(c(O)c1C2=O)C[C@@](O)(C(=O)CO)C[C@@H]3O[C@H]1C[C@H](N)[C@H](O)[C@H](C)O1	–	–	–	–	-9.68 kcal/mol	–	–	–	–	–
COC(=O)[C@@H](O)[C@@](C)(O)[C@@]12O[C@]13c1cc(O)c4c(c1N[C@H]2C#C/C=C\C#C[C@H]3O)C(=O)c1c(ccc(OC)c1O)C4=O	0.4 nM	0.04 nM	0.4 nM	0.4 nM	-8.56 kcal/mol	0.4 nM	0.1 nM	248 nM	Active	Activity (Supercoiled DNA [7]): Active; Activity (Supercoiled DNA [8]): Active; Activity (Supercoiled DNA [9]): Active; Activity (Supercoiled DNA [10]): Active; Activity (Supercoiled DNA [11]): Active; Activity (Supercoiled DNA [12]): Active
COC1=C(C(=O)O)[C@H](C)[C@@]23O[C@]24c2cc(O)c5c(c2N[C@H]3C#C/C=C\C#CC14)C(=O)c1ccccc1C5=O	–	–	–	–	-3.79 kcal/mol	–	–	–	–	–
COc1ccc2c(c1O)C(=O)c1c3c(cc(O)c1C2=O)[C@@]12O[C@@]1([C@](C)(O)[C@H](O)C(=O)O)[C@H](C#C/C=C\C#C[C@H]2O)N3	6.8 nM	0.24 nM	0.6 nM	1 nM	-8.48 kcal/mol	158 nM	10.1 nM	760 nM	–	Activity (Supercoiled DNA [13]): Active; Activity (Supercoiled DNA [14]): Active; Activity (Supercoiled DNA [15]): Active; Activity (DNA [16]): inactive; Activity (Supercoiled DNA [17]): Active; Activity (Supercoiled DNA [18]): Active; Activity (Supercoiled DNA [19]): Active
O=C1c2ccccc2C(=O)c2c3c(cc(O)c21)[C@@]12O[C@@]1([C@H](O)CO)[C@H](C#C/C=C\C#C[C@H]2O)N3	0.3 nM	0.004 nM	0.1 nM	0.01 nM	-8.31 kcal/mol	5.4 nM	0.2 nM	83.3 nM	Active	Activity (Supercoiled DNA [20]): Active; Activity (Supercoiled DNA [21]): Active; Activity (Supercoiled DNA [22]): inactive
COc1ccc2c(c1O)C(=O)c1c3c(cc(O)c1C2=O)[C@@]12O[C@@]1([C@@H](C)O)[C@H](C#C/C=C\C#C[C@H]2O)N3	0.2 nM	0.02 nM	0.2 nM	0.05 nM	-8.26 kcal/mol	0.4 nM	0.04 nM	38.9 nM	Active	Activity (Supercoiled DNA [23]): Active; Activity (Supercoiled DNA [24]): Active; Activity (Supercoiled DNA [25]): inactive; Activity [26]: Toxic; Activity (Supercoiled DNA [7]): Active; Activity (Supercoiled DNA [8]): Active; Activity (Supercoiled DNA [27]): inactive; Activity (Supercoiled DNA [9]): Active; Activity (Supercoiled DNA [28]): inactive; Activity (Supercoiled DNA [10]): Active; Activity (Supercoiled DNA [21]): Active; Activity (Supercoiled DNA [12]): Active; Activity (Supercoiled DNA [29]): inactive; deltaG (Calf thymus DNA [30]): -20.5 kcal/mol; Activity (Supercoiled DNA [22]): inactive; Activity (Supercoiled DNA [31]): Active; deltaG (Calf thymus DNA [32]): -17.8 kcal/mol
C[C@@H](O)C12O[C@]13c1cc(O)c4c(c1N[C@H]2C#C/C=C\C#C[C@H]3O)C(=O)c1c(O)cccc1C4=O (stereo partly specified)	0.2 nM	0.006 nM	0.07 nM	0.009 nM	-8.31 kcal/mol	1.4 nM	0.06 nM	75.5 nM	Active	–
O=C1c2cccc(O)c2C(=O)c2c3c(cc(O)c21)[C@@]12O[C@@]1([C@H](O)CO)[C@H](C#C/C=C\C#C[C@H]2O)N3	0.8 nM	0.01 nM	0.2 nM	0.02 nM	-8.41 kcal/mol	13.5 nM	0.2 nM	261 nM	Active	–
COc1ccc2c(c1OC)C(=O)c1c3c(cc(OC)c1C2=O)[C@@]12O[C@@]1([C@@H](C)O)[C@H](C#C/C=C\C#C[C@H]2O)N3	525 nM	32.8 nM	382 nM	117 nM	–	635 nM	787 nM	> 1000 nM	–	Activity (DNA [16]): inactive
BLEOMYCIN	–	–	–	–	–	–	–	–	–	Activity (DNA [33]): Active
COC1=C(C(=O)O)[C@H](C)[C@@]23O[C@]24c2cc(O)c5c(c2N[C@H]3C#C/C=C\C#CC14)C(=O)c1c(O)ccc(O)c1C5=O	–	–	–	–	2.62 kcal/mol	–	–	–	–	deltaG (Calf thymus DNA [30]): -18.1 kcal/mol; deltaG (Calf thymus DNA [32]): -13.6 kcal/mol

— ChEMBL document CHEMBL5518228, “DNA Interaction and Cleavage Modes of Anthraquinone-Fused Enediynes: A Study on Tiancimycins, Yangpumicins, and Their Semisynthetic Analogues” (J Med Chem, 2024)
